Source: US9012635B2, “Pyridone amides and analogs exhibiting anti-cancer and anti-proliferative activities” (Deciphera Pharmaceuticals, LLC, priority 2013, dated 2015)
Counter-ions that a name gives are not always drawn.

Columns and labels:
[1] = target: T1, c-KIT kinase (Seq. ID No. 1) (Homo sapiens, UniProt P10721); assay: c-KIT kinase assay (pyruvate kinase/lactate dehydrogenase coupled, A340); format: biochemical; settings: enzymatic assay, ATP 200 μM; read-out: cKIT
T1 construct: c-KIT (cKIT residues T544-V976, from ProQinase, 5.4 nM); purchased ProQinase
Protocol: Activity of c-KIT kinase (Seq. ID No. 1) was determined by following the production of ADP from the kinase reaction through coupling with the pyruvate kinase/lactate dehydrogenase system (e.g., Schindler et al. Science 2000, 289, pp. 1938-1942). In this assay, the oxidation of NADH (thus the decrease at A340 nm) was continuously monitored spectrophotometrically. The reaction mixture (100 μl) contained c-KIT (cKIT residues T544-V976, from ProQinase, 5.4 nM), polyE4Y (1 mg/mL), MgCl2 (10 mM), pyruvate kinase (4 units), lactate dehydrogenase (0.7 units), phosphoenol pyruvate (1 mM), and NADH (0.28 mM) in 90 mM Tris buffer containing 0.2% octyl-glucoside and 1% DMSO, pH 7.5. Test compounds were incubated with c-KIT (Seq. ID No. 1) and other reaction reagents at 22° C. for less than 2 min before ATP (200 μM) was added to start the reaction. The absorption at 340 nm was monitored continuously for 0.5 hours at 30° C. on Polarstar Optima plate reader (BMG). The reaction rate was calculated using the 0 to 0.5 h time frame. Percent inhibition was obtained by comparison of reaction rate with that of a control (i.e., with no test compound). IC50 values were calculated from a series of percent inhibition values determined at a range of inhibitor concentrations using software routines as implemented in the GraphPad Prism software package.

MKN-45 cells = assay: MKN-45 cell proliferation assay (resazurin); format: cell-based; settings: Homo sapiens, 67 h + 5 h resazurin
Protocol: (§1) MKN-45 cells (catalog #JCRB0254) were obtained from the Japan Health Science Research Resources Bank, Osaka, Japan. Briefly, cells were grown in RPMI 1640 media supplemented with 10% characterized fetal bovine serum (Invitrogen, Carlsbad, Calif.) at 37° C., 5% CO2, 95% humidity. Cells were allowed to expand until reaching 70-95% confluency at which point they were subcultured or harvested for assay use.
(§2) A serial dilution of test compound was dispensed into a 96-well black clear bottom plate (Corning, Corning, N.Y.). Five thousand cells were added per well in 200 μL complete growth medium. Plates were incubated for 67 hours at 37° C., 5% CO2, 95% humidity. At the end of the incubation period 40 μL of a 440 μM solution of resazurin (Sigma, St. Louis, Mo.) in PBS was added to each well and plates were incubated for an additional 5 h at 37° C., 5% CO2, 95% humidity. Plates were read on a Synergy2 reader (Biotek, Winooski, Vt.) using an excitation of 540 nm and an emission of 600 nm. Data was analyzed using Prism software (GraphPad, San Diego, Calif.) to calculate IC50 values.

[2] = target: T2, c-MET kinase (Seq. ID No. 2) (Homo sapiens, UniProt P08581); assay: c-MET kinase assay (pyruvate kinase/lactate dehydrogenase coupled, A340); format: biochemical; settings: enzymatic assay, 0.5 h pre-incubation, ATP 100 μM; read-out: cMET
T2 construct: c-MET (c-MET residues: 956-1390, from Invitrogen, catalogue #PV3143, 6 nM); purchased Invitrogen PV3143
Protocol: Activity of c-MET kinase (Seq. ID No. 2) was determined by following the production of ADP from the kinase reaction through coupling with the pyruvate kinase/lactate dehydrogenase system (e.g., Schindler et al. Science 2000, 289, pp. 1938-1942). In this assay, the oxidation of NADH (thus the decrease at A340 nm) was continuously monitored spectrophotometrically. The reaction mixture (100 μl) contained c-MET (c-MET residues: 956-1390, from Invitrogen, catalogue #PV3143, 6 nM), polyE4Y (1 mg/mL), MgCl2 (10 mM), pyruvate kinase (4 units), lactate dehydrogenase (0.7 units), phosphoenol pyruvate (1 mM), and NADH (0.28 mM) in 90 mM Tris buffer containing 0.25 mM DTT, 0.2% octyl-glucoside and 1% DMSO, pH 7.5. Test compounds were incubated with c-MET (Seq. ID No. 2) and other reaction reagents at 22° C. for 0.5 h before ATP (100 μM) was added to start the reaction. The absorption at 340 nm was monitored continuously for 2 hours at 30° C. on Polarstar Optima plate reader (BMG). The reaction rate was calculated using the 1.0 to 2.0 h time frame. Percent inhibition was obtained by comparison of reaction rate with that of a control (i.e., with no test compound). IC50 values were calculated from a series of percent inhibition values determined at a range of inhibitor concentrations using software routines as implemented in the GraphPad Prism software package.

[3] = target: KDR kinase (Seq ID No. 3) (Homo sapiens, UniProt P35968, DEL940-989/E990V); assay: KDR kinase assay (assays K1, K2, K3); format: biochemical; settings: enzymatic assay; variant K1, K2 or K3 not given
Protocol: The activity of KDR kinase was determined by following the production of ADP from the kinase reaction through coupling with the pyruvate kinase/lactate dehydrogenase system (e.g., Schindler et al. Science 2000, 289, pp. 1938-1942). In this assay, the oxidation of NADH (thus the decrease at A340 nm) was continuously monitored spectrophotometrically. The reaction mixture (100 μl) contained KDR (Seq ID No. 3, 1.5 nM to 7.1 nM, nominal concentration), polyE4Y (1 mg/mL), pyruvate kinase (3.5 units), lactate dehydrogenase (5.5 units), phosphoenolpyruvate (1 mM), and NADH (0.28 mM) in 60 mM Tris buffer containing 0.13% octyl-glucoside, 13 mM MgCl2, 6.8 mM DTT, test compound, and 3.5% DMSO at pH 7.5. The reaction was initiated by adding ATP (0.2 mM, final concentration). The absorption at 340 nm was continuously monitored for 3 h at 30° C. on a Polarstar Optima plate reader (BMG) or instrument of similar capacity. The reaction rate was calculated using the 1 h to 2 h time frame. Percent inhibition was obtained by comparison of reaction rate with that of a control (i.e., with no test compound). IC50 values were calculated from a series of percent inhibition values determined at a range of inhibitor concentrations using software routines as implemented in the GraphPad Prism software package.
KDR kinase assay K2 is the same as for assay K1 except that (1) a nominal concentration of 2.1 nM of enzyme was employed (2) the reaction was pre-incubated with test compound at 30° C. for 2 h prior to initiation with ATP and (3) 1.0 mM ATP (final concentration) was used to initiate the reaction.
KDR kinase assay K3 is the same as for assay K1 except that (1) a nominal concentration of 1.1 nM of enzyme was employed, (2) the buffer components per 100 μl reaction mixture were as follows: 75 mM Tris buffer containing 0.066% octyl-glucoside, 17 mM MgCl2, and 1% DMSO at pH 7.5, (3) the final concentration of DTT was 0.66 mM, (4) the reaction was pre-incubated with test compound at 30° C. for 1 h prior to initiation with ATP, and (5) 1.0 mM ATP (final concentration) was used to initiate the reaction.

EBC-1 cells = assay: EBC-1 cell proliferation assay (resazurin); format: cell-based; settings: Homo sapiens, 67 h + 5 h resazurin, read-out: EBC1 Proliferation
Protocol: as §1, with “EBC-1” for “MKN-45”, “#JCRB0820)” for “#JCRB0254)”, “DMEM” for “RPMI 1640 media”
as §2, with “N.Y.). For each cell line, five” for “N.Y.). Five”, “and” for “and plates were”, “5 hours” for “5 h”

T2 sequence (P08581 with tags, fused parts or gaps): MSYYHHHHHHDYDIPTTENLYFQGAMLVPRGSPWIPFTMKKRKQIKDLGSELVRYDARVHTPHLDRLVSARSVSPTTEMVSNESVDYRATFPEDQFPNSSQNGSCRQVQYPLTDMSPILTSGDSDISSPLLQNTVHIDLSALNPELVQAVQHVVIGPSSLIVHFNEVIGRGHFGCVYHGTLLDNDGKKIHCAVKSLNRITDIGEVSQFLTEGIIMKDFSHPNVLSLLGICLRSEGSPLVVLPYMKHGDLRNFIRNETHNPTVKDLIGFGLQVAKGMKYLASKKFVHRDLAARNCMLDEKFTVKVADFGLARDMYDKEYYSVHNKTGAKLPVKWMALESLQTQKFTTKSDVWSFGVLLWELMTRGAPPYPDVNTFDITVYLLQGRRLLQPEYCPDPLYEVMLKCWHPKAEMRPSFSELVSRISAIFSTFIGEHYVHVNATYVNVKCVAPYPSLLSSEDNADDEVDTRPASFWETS
Chain of KDR kinase (Seq ID No. 3) (P35968 with tags, fused parts or gaps DEL940-989/E990V): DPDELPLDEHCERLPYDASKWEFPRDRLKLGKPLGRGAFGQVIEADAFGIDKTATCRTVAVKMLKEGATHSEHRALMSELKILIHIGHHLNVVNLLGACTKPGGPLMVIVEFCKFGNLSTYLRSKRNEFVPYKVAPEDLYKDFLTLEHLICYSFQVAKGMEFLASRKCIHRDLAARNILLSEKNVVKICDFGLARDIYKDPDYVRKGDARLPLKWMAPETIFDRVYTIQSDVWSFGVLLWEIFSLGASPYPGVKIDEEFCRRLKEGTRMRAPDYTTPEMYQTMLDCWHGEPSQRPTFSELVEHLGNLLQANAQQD
T1 sequence (P10721 with tags, fused parts or gaps): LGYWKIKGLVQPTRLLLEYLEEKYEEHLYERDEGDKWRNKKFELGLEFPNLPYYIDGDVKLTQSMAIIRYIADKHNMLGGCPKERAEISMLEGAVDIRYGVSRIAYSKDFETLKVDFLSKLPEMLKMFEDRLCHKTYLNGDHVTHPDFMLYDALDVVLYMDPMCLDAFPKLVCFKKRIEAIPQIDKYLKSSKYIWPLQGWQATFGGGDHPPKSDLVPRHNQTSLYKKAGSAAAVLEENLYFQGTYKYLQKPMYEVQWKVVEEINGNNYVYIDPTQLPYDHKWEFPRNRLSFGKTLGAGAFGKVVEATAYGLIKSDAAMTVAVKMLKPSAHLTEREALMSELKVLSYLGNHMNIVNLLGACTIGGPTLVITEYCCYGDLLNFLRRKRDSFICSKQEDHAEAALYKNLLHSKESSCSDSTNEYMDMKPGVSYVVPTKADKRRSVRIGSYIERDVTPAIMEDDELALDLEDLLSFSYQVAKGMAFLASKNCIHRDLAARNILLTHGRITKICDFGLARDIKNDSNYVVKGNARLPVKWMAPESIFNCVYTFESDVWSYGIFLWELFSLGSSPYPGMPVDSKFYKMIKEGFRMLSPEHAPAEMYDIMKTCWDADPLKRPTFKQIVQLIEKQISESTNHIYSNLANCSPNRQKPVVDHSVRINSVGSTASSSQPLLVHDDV

Row | IC50 [1] [nM] | IC50 (MKN-45 cells) [nM] | IC50 [2] [nM] | IC50 [3] [nM] | SMILES | IC50 (EBC-1 cells) [nM]
1 | 100 to 1000 | > 1000 | ≤ 100 | > 1000 | CNc1ccn(-c2ccc(F)cc2)c(=O)c1C(=O)Nc1cc(F)c(Oc2ccnc(-c3cnn(C)c3)c2)cc1F [Example 4, N-(2,5-difluoro-4-((2-(1-methyl-1H-pyrazol-4-yl)pyridin-4-yl)oxy)phenyl)-1-(4-fluorophenyl)-4-(methylamino)-2-oxo-1,2-dihydropyridine-3-carboxamide] | 100 to 1000
2 | ≤ 100 |  | ≤ 100 | 100 to 1000 | Cn1cc(-c2cc(Oc3cc(F)c(NC(=O)c4c[nH]cc(-c5ccc(F)cc5)c4=O)cc3F)ccn2)cn1 [Example 10, N-(2,5-difluoro-4-((2-(1-methyl-1H-pyrazol-4-yl)pyridin-4-yl)oxy)phenyl)-5-(4-fluorophenyl)-4-oxo-1,4-dihydropyridine-3-carboxamide] | 
3 | > 1000 | 100 to 1000 | ≤ 100 | > 1000 | CCOc1ccn(-c2ccc(F)cc2)c(=O)c1C(=O)Nc1cc(F)c(Oc2ccnc(-c3cn[nH]c3)c2)cc1F [Example 8, N-(4-((2-(1H-pyrazol-4-yl)pyridin-4-yl)oxy)-2,5-difluorophenyl)-4-ethoxy-1-(4-fluorophenyl)-2-oxo-1,2-dihydropyridine-3-carboxamide hydrochloride] | 100 to 1000

The remaining lines, values behind:

Row | SMILES | IC50 [1] [nM] | IC50 (MKN-45 cells) [nM] | IC50 [2] [nM] | IC50 [3] [nM] | IC50 (EBC-1 cells) [nM]
4 | CCOc1ccn(-c2ccc(F)cc2)c(=O)c1C(=O)Nc1cc(F)c(Oc2ccnc(-c3cnn(CC)c3)c2)cc1F [Example 7, 4-ethoxy-N-(4-((2-(1-ethyl-1H-pyrazol-4-yl)pyridin-4-yl)oxy)-2,5-difluorophenyl)-1-(4-fluorophenyl)-2-oxo-1,2-dihydropyridine-3-carboxamide] | > 1000 | ≤ 100 | ≤ 100 | > 1000 | ≤ 100
5 | CCOc1ccn(-c2ccc(F)cc2)c(=O)c1C(=O)Nc1cc(F)c(Oc2ccnc(-c3cnn(C(C)C)c3)c2)cc1F [Example 6, N-(2,5-difluoro-4-((2-(1-isopropyl-1H-pyrazol-4-yl)pyridin-4-yl)oxy)phenyl)-4-ethoxy-1-(4-fluorophenyl)-2-oxo-1,2-dihydropyridine-3-carboxamide] | > 1000 | 100 to 1000 | ≤ 100 | > 1000 | 100 to 1000
6 | Cn1cc(C(=O)Nc2cc(F)c(Oc3ccnc(-c4cnn(C)c4)c3)cc2F)c(=O)c(-c2ccc(F)cc2)c1 [Example 9, N-(2,5-difluoro-4-((2-(1-methyl-1H-pyrazol-4-yl)pyridin-4-yl)oxy)phenyl)-5-(4-fluorophenyl)-1-methyl-4-oxo-1,4-dihydropyridine-3-carboxamide] | ≤ 100 |  | ≤ 100 | > 1000 | 
